Results as given in US12091398B2, “PD-L1 antagonist compound” (ADLAI NORTYE BIOPHARMA CO., LTD., priority 2019, dated 2024).

Tested on: PD-1/PD-L1 interaction
Assay: Cell based PD-1/PD-L1 NFAT reporter assay
Design: species or system human
Conditions: Homo sapiens, 6 h, PD-1/NFAT-Reporter-Jurkat cells co-cultured with TCR activator/PD-L1-CHO cells; 6 hour incubation; luciferase; calibrated to Atezolizumab 10 nM; read-out: Absolute EC50
Protocol: Cell Based PD-1/PD-L1 NFAT Reporter Assay
Compounds of the present patent were tested in a cell based PD-1/PD-L1 NFAT reporter assay.
The cell-based luciferase reporter assay is used for monitoring the PD-1/PD-L1 inhibitor by characterizing the biological activity of PD-1: PD-L1 interactions in cellular context. PD-1/NFAT-Reporter-Jurkat cells stably over-expressing human PD-1 with NFAT reporter are used as effector cells. TCR activator/PD-L1—CHO cells over-expressing PD-L1 and an engineered T cell receptor (TCR) activator are used as target cells. When these two cells are co-cultivated, TCR complexes on effector cells are activated by TCR activator on target cells, resulting in expression of the NFAT luciferase reporter. However, PD1 and PD-L1 (or PD-L2) ligation prevents TCR activation and suppresses the NFAT-responsive luciferase activity. This inhibition can be specifically reversed by anti-PD1 or anti-PD-L1 inhibitors. PD1/PD-L1 inhibitors block PD1:PD-L1 interaction and promote TCR activation, resulting in reactivation of the NFAT responsive luciferase reporter.
PD-1/NFAT—Reporter—Jurkat cell (Cat: 60535) and TCR activator/PD-L1—CHO cell (Cat: 60536) were purchased from BPS Bioscience. Anti-human PD-L1 antibody (Atezolizumab, Cat: A2004) was purchased from Selleck; luciferase reporter gene expression detection kit (ONE-Glo™ Luciferase Assay System, Cat: E6120) was purchased from Promega; multifunction plate reader (SpectraMax i3x) was purchased from Molecular Devices.
PD-1/NFAT—Reporter—Jurkat cells and TCR activator/PD-L1—CHO cells were cultured in recommended media respectively.
Harvest TCR activator/PD-L1-CHO cells from culture and seed cells at a density of 35,000 cells per well into 96-well microplate in 100 µl of growth medium. Incubate cells at 37° C. in a CO2 incubator overnight. Next day, discard the culture media, add diluted compound in assay medium for 30 min. Anti-PD-L1 antibody (Atezolizumab, final concentration 10 nM) and 0.1% DMSO were the positive and negative control, respectively. Harvest the PD-1/NFAT-reporter-Jurkat cells by centrifugation and add to the wells. After 6 hour incubation, perform luciferase assay using the ONE-Glo™ Luciferase Assay System, following the manufacturer's assay protocol.
Anti-PD-L1 antibody (Atezolizumnab, 10 nM) was used as positive control to calibrate the inhibition rate using the following equation: % inhibition=(Sample luminescence/Average vehicle group luminescence−1)/(Average PD-L1 group luminescence/Average vehicle group luminescence−1)×100%.

N#Cc1cc(COc2cc(OCc3cccc(-c4cccc5c4cnn5CCCN4CC[C@@H](O)C4)c3Br)c(Cl)cc2CN[C@@H](CO)C(=O)O)ccn1 [Compound 1] and N#Cc1cncc(COc2cc(OCc3cccc(-c4cccc5c4cnn5CCCCCN4CC[C@@H](O)C4)c3Br)c(Cl)cc2CN[C@@H](CO)C(=O)O)c1 [Compound 9] are within 1.5-fold of each other in EC50: 340 nM for the first, 367 nM for the second.

Compared with N#Cc1cncc(COc2cc(OCc3cccc(-c4cccc5c4ccn5CCCN4CC[C@@H](O)C4)c3Br)c(Cl)cc2CN[C@@H](CO)C(=O)O)c1 [Compound 3], Cc1nn(CCCN2CC[C@@H](O)C2)c2cccc(-c3cccc(COc4cc(OCc5cncc(C#N)c5)c(CN[C@@H](CO)C(=O)O)cc4Cl)c3Br)c12 [Compound 4] is 2.3-fold higher in EC50: 2380 nM for the first, 5490 nM for the second. The first is the more potent here.

Compared with N#Cc1cncc(COc2cc(OCc3cccc(-c4cccc5c4cnn5CCCN4CCC(O)CC4)c3Br)c(Cl)cc2CN[C@@H](CO)C(=O)O)c1 [Compound 6], N#Cc1cncc(COc2cc(OCc3cccc(-c4cccc5c4cnn5CCCN4CC[C@@H](O)C4)c3C3CC3)c(Cl)cc2CN[C@@H](CO)C(=O)O)c1 [Compound 24] is higher in EC50: 266 nM for the first, over 10000 nM for the second.

CC(CO)(CO)NCc1cc(Cl)c(OCc2cccc(-c3cccc4c3cnn4CCCCN3CC[C@@H](O)C3)c2Br)cc1OCc1cncc(C#N)c1 [Compound 7] and CC(CO)(CO)NCc1cc(Cl)c(OCc2cccc(-c3cccc4c3cnn4CCCN3CCC(O)CC3)c2Br)cc1OCc1cncc(C#N)c1 [Compound 13] are within 1.5-fold of each other in EC50: 338 nM for the first, 242 nM for the second.

First: CC(CO)(NCc1cc(Cl)c(OCc2cccc(-c3cccc4c3cnn4CCCN3CC[C@@H](O)C3)c2Br)cc1OCc1cncc(C#N)c1)C(=O)O (stereo partly drawn) [Compound 10]
Second: C[C@@](CO)(NCc1cc(Cl)c(OCc2cccc(-c3cccc4c3cnn4CCCN3CC[C@@H](O)C3)c2Br)cc1OCc1cncc(C#N)c1)C(=O)O [Compound 18]
The EC50 of the first is 1.8-fold higher: 412 nM for the first, 235 nM for the second. The second is the more potent here.

Compared with CC(CO)(NCc1cc(Cl)c(OCc2cccc(-c3cccc4c3cnn4CCCCN3CC[C@@H](O)C3)c2Br)cc1OCc1cncc(C#N)c1)C(=O)O (stereo partly drawn) [Compound 12], Cc1c(COc2cc(OCc3cncc(C#N)c3)c(CN[C@@H](CO)C(=O)O)cc2Cl)cccc1-c1cccc2c1cnn2CCCCN1CC[C@@H](O)C1 [Compound 27] is 2.2-fold higher in EC50: 289 nM for the first, 643 nM for the second. The first is the more potent here.

Going from CC(CO)(CO)NCc1cc(Cl)c(OCc2cccc(-c3cccc4c3cnn4[C@H]3CC[C@H](N4CC[C@@H](O)C4)CC3)c2Br)cc1OCc1cncc(C#N)c1 [Compound 14] to N#Cc1cncc(COc2cc(OCc3cccc(-c4cccc5c4cnn5CC4CCC(N5CC[C@@H](O)C5)CC4)c3Br)c(Cl)cc2CN[C@@H](CO)C(=O)O)c1 (stereo partly drawn) [Compound 19], the EC50 rises from 323 nM to 764 nM (2.4-fold).

First: CC(CO)(CO)NCc1cc(Cl)c(OCc2cccc(-c3cccc4c3cnn4CCCCN(CCO)CCO)c2Br)cc1OCc1cncc(C#N)c1 [Compound 15]
Second: CC(CO)(CO)NCc1cc(Cl)c(OCc2cccc(-c3cccc4c3cnn4CCCCNCCO)c2Br)cc1OCc1cncc(C#N)c1 [Compound 16]
The EC50 of the first is 2.9-fold lower: 3240 nM for the first, 9360 nM for the second. The first is the more potent here.

First: CC1(C)OCC(N2CCC(n3ncc4c(-c5cccc(COc6cc(OCc7cncc(C#N)c7)c(CN[C@@H](CO)C(=O)O)cc6Cl)c5Br)cccc43)CC2)CO1 [Compound 17]
Second: N#Cc1cncc(COc2cc(OCc3cccc(-c4cccc5c4cnn5C4CCN(C(CO)CO)CC4)c3Br)c(Cl)cc2CN[C@@H](CO)C(=O)O)c1 [Compound 22]
The EC50 of the first is 1.6-fold higher: 1760 nM for the first, 1130 nM for the second.

First: CC(CO)(CO)NCc1cc(Cl)c(OCc2cccc(-c3cncc4c3cnn4CCCCN3CC[C@@H](O)C3)c2Br)cc1OCc1cncc(C#N)c1 [Compound 21]
Second: Cc1c(COc2cc(OCc3cncc(C#N)c3)c(CNC(C)(CO)CO)cc2Cl)cccc1-c1cccc2c1cnn2CCCN1CC[C@@H](O)C1 [Compound 25]
The EC50 of the first is 26-fold higher: 3540 nM for the first, 138 nM for the second. The second is the more potent here.

Compared with N#Cc1cncc(COc2cc(OCc3cccc(-c4cccc5c4cnn5CCCCN4CCC[C@H]4C(=O)O)c3Br)c(Cl)cc2CN[C@@H](CO)C(=O)O)c1 [Compound 23], N#Cc1cncc(COc2cc(OCc3cccc(-c4cccc5c4cnn5CCCCN4CC[C@@H](O)C4)c3N)c(Cl)cc2CN[C@@H](CO)C(=O)O)c1 [Compound 29] is higher in EC50: 608 nM for the first, over 1100 nM for the second. The first is the more potent here.

First: Cc1c(COc2cc(OCc3cncc(C#N)c3)c(CN[C@@H](CO)C(=O)O)cc2Cl)cccc1-c1ccnc2c1cnn2CCCCN1CC[C@@H](O)C1 [Compound 26]
Second: CN(C)c1c(COc2cc(OCc3cncc(C#N)c3)c(CN[C@@H](CO)C(=O)O)cc2Cl)cccc1-c1cccc2c1cnn2CCCCN1CC[C@@H](O)C1 [Compound 31]
The EC50 of the first is lower: 1830 nM for the first, over 10000 nM for the second.

Going from N#Cc1cncc(COc2cc(OCc3cccc(-c4cccc5c4cnn5CCCCN4CC[C@@H](O)C4)c3[N+](=O)[O-])c(Cl)cc2CN[C@@H](CO)C(=O)O)c1 [Compound 28] to Cc1cncc(COc2cc(OCc3cccc(-c4cccc5c4cnn5CCCCN4CC[C@@H](O)C4)c3Br)c(Cl)cc2CN[C@@H](CO)C(=O)O)c1 [Compound 39], the EC50 rises from 726 nM to over 10000 nM.

Compared with N#CCOc1cc(OCc2cccc(-c3cccc4c3cnn4CCCCN3CC[C@@H](O)C3)c2Br)c(Cl)cc1CN[C@@H](CO)C(=O)O [Compound 34], N#CCCCOc1cc(OCc2cccc(-c3cccc4c3cnn4CCCCN3CC[C@@H](O)C3)c2Br)c(Cl)cc1CN[C@@H](CO)C(=O)O [Compound 35] is 3.8-fold lower in EC50: 5780 nM for the first, 1540 nM for the second.

N#CCCCCOc1cc(OCc2cccc(-c3cccc4c3cnn4CCCCN3CC[C@@H](O)C3)c2Br)c(Cl)cc1CN[C@@H](CO)C(=O)O [Compound 36] and N#CCCCCCOc1cc(OCc2cccc(-c3cccc4c3cnn4CCCCN3CC[C@@H](O)C3)c2Br)c(Cl)cc1CN[C@@H](CO)C(=O)O [Compound 37] are within 1.5-fold of each other in EC50: 2340 nM for the first, 1920 nM for the second.

Going from NC(=O)COc1cc(OCc2cccc(-c3cccc4c3cnn4CCCCN3CC[C@@H](O)C3)c2Br)c(Cl)cc1CN[C@@H](CO)C(=O)O [Compound 38] to O=C1CC[C@@H](COc2cc(OCc3cccc(-c4cccc5c4cnn5CCCCN4CC[C@@H](O)C4)c3Br)c(Cl)cc2CN[C@@H](CO)C(=O)O)N1 [Compound 47], the EC50 falls from 7640 nM to 261 nM (29-fold). The second is the more potent here.

Compared with COc1cncc(COc2cc(OCc3cccc(-c4cccc5c4cnn5CCCCN4CC[C@@H](O)C4)c3Br)c(Cl)cc2CN[C@@H](CO)C(=O)O)c1 [Compound 40], O=C(O)[C@H](CO)NCc1cc(Cl)c(OCc2cccc(-c3cccc4c3cnn4CCCCN3CC[C@@H](O)C3)c2Br)cc1OCc1cncc(Cl)c1 [Compound 41] is lower in EC50: over 10000 nM for the first, 606 nM for the second. The second is the more potent here.

Compared with Cn1cc(COc2cc(OCc3cccc(-c4cccc5c4cnn5CCCCN4CC[C@@H](O)C4)c3Br)c(Cl)cc2CN[C@@H](CO)C(=O)O)cn1 [Compound 42], CN1CCC(COc2cc(OCc3cccc(-c4cccc5c4cnn5CCCCN4CC[C@@H](O)C4)c3Br)c(Cl)cc2CN[C@@H](CO)C(=O)O)CC1 [Compound 46] is lower in EC50: over 10000 nM for the first, 846 nM for the second.

First: N#Cc1cc(C#N)cc(COc2cc(OCc3cccc(-c4cccc5c4cnn5CCCCN4CC[C@@H](O)C4)c3Br)c(Cl)cc2CN[C@@H](CO)C(=O)O)c1 [Compound 44]
Second: O=C(O)[C@H](CO)NCc1cc(Cl)c(OCc2cccc(-c3cccc4c3cnn4CCCCN3CC[C@@H](O)C3)c2Br)cc1OCC1CCOCC1 [Compound 45]
The EC50 of the first is 18-fold lower: 153 nM for the first, 2720 nM for the second. The first is the more potent here.

Same assay, conditions: PD-1/NFAT-Reporter-Jurkat cells co-cultured with TCR activator/PD-L1-CHO cells; 6 hour incubation; luciferase; calibrated to Atezolizumab 10 nM; read-out: Absolute EC50

N#Cc1cncc(COc2cc(OCc3cccc(-c4cccc5c4cnn5CCCN4CC[C@@H](O)C4)c3Br)c(Cl)cc2CN[C@@H](CO)C(=O)O)c1 [Compound 2] and N#Cc1cncc(COc2cc(OCc3cccc(-c4cccc5c4cnn5CCCCN4CC[C@@H](O)C4)c3Br)c(Cl)cc2CN[C@@H](CO)C(=O)O)c1 [Compound 5] are within 1.5-fold of each other in EC50: 310 nM for the first, 241 nM for the second.

First: N#Cc1cncc(COc2cc(OCc3cccc(-c4cccc5c4cnn5CCCCN4CC[C@@H](O)C4)c3Br)c(Cl)cc2CN[C@@H](CO)C(=O)O)c1 [Compound 8]
Second: N#Cc1cncc(COc2cc(OCc3cccc(-c4cccc5c4cnn5CCCN4CC[C@@H](O)C4)c3Br)c(Cl)cc2CN[C@@H](CO)C(=O)O)c1 [Compound 32]
The EC50 of the first is 1.6-fold higher: 1160 nM for the first, 724 nM for the second. The second is the more potent here.

First: CC(CO)(CO)NCc1cc(Cl)c(OCc2cccc(-c3cccc4c3cnn4CCCN3CC[C@@H](O)C3)c2Br)cc1OCc1cncc(C#N)c1 [Compound 11]
Second: N#Cc1cncc(COc2cc(OCc3cccc(-c4cccc5c4cnn5CC4CCC(N5CC[C@@H](O)C5)CC4)c3Br)c(Cl)cc2CN[C@@H](CO)C(=O)O)c1 (stereo partly drawn) [Compound 20]
The EC50 of the first is 6.2-fold lower: 142 nM for the first, 876 nM for the second. The first is the more potent here.

Molecule CC(CO)(CO)NCc1cc(Cl)c(OCc2cccc(-c3cccc4c3cnn4CCCN3CC[C@@H](O)C3)c2Br)cc1OCc1cncc(C#N)c1 [Compound 33] has an EC50 of over 370 nM.
